Laboratory results: patent US10376520B2, “Methods for the treatment of cardiovascular disorders” (Galapagos NV, priority 2015, dated 2019)

Legend:
Type in all cases: in vivo, human
RA patients [1] = experiment: CRP analysis (immunoturbidimetric assay), Study 1
Experimental: Double-blind, placebo-controlled add on study in subjects with moderately to severely active RA who have an inadequate response to methotrexate (MTX) (oral or parenteral).
Compound 1 (dosed as a [Compound 1:HCl:3H2O]) is dosed for twelve weeks once daily (q.d.) (50 mg, 100 mg or 200 mg) or twice daily (b.i.d.) (25 mg, 50 mg or 100 mg); or placebo.
At Week 12, the subjects on placebo who have not achieved 20% improvement in swollen joint count (SJC66) and tender joint count (TJC68) are re-randomized automatically to receive Compound 1 (dosed as a [Compound 1:HCl:3H2O]) either at 100 mg q.d. or 50 mg b.i.d. doses in a blinded fashion; subjects on 50 mg q.d. who have not achieved 20% improvement in SJC66 and TJC68 will be assigned to 100 mg q.d. and subjects on 25 mg b.i.d. that have not achieved a 20% improvement in SJC66 and TJC68 will be assigned to 50 mg b.i.d. Subjects who switch treatment at week 12 are handled as if they discontinued at week 12 for the purpose of statistical analysis, whereas subjects in the other groups will maintain their randomized treatment until Week 24.
(§1) The determination of CRP is made using Immunoturbidimetric assay for the in vitro quantitative determination of CRP in human serum and plasma on Roche/Hitachi cobas c systems, wherein human CRP agglutinates with latex particles coated with monoclonal anti-CRP antibodies. The aggregates are determined turbidimetrically (Eda et al., 1998; Price et al., 1987).
(§2) Human serum and plasma samples [CRP] determination was done on a Roche/Hitachi Cobas c 301 c 501/502 system which automatically calculate the analyte concentration of each sample. Samples containing precipitates are centrifuged before performing the assay.
The Hommel-corrected p-value for the pairwise comparisons of each group with placebo is shown.
The number of subjects (N) provided in each groups corresponds to the number of patients starting the study in each group, and the ACR data reported below corresponds to the responding patients continuing for the entire 24 weeks on their initial treatment course.

RA patients [2] = experiment: CRP analysis (immunoturbidimetric assay), Study 2; settings: 50 mg q.d.
Experimental: Double-blind, placebo-controlled, monotherapy study in subjects with moderately to severely active RA who have an inadequate response to methotrexate (MTX) (oral or parenteral).
Twelve weeks of treatment with Compound 1 (dosed as a [Compound 1:HCl:3H2O]) at 50 mg, 100 mg, or 200 mg q.d.; or placebo. At Week 12, all subjects on placebo and the subjects on the 50 mg dose who have not achieved 20% improvement in swollen joint count (SJC66) and tender joint count (TJC68) will be assigned to 100 mg q.d. in a blinded fashion and will continue treatment until Week 24. Subjects in the other groups will maintain their randomized treatment until Week 24.
as §1, §2
The Hommel-corrected p-value for the pairwise comparisons of each group with placebo is shown. […]

RA patients [3] = experiment: Plasma ApoC-II concentration (ELISA), Study 4; settings: 4 weeks change from baseline
Experimental: (§3) Randomized double-blind, placebo-controlled add on study in subjects with active RA who have an inadequate response to MTX monotherapy, in combination with methotrexate, administered for 4 weeks in the treatment of subjects with active rheumatoid arthritis who have an inadequate response to methotrexate alone.
(§4) Compound 1 (dosed as a [Compound 1:HCl:3H2O]) capsules administered orally in 30 mg, 75 mg, 150 mg, or 300 mg doses per day for 4 weeks.
Plasma ApoC-II and ApoC-III concentrations are determined using commercial available ELISA kits from Abnova (9th Floor, No. 108, Jhouzih St., Neihu District. Taipei City, 114, Taiwan) according to manufacturer's instruction. apoC2: catalogue number KA0464, lot number used: 08871403. apoC3: catalogue number KA0465, lot number used: 02961525.

RA patients [4] = experiment: [HDL] cholesterol level (Selectra autoanalyzer), Study 4; settings: for HDL level, 4 weeks CFB: 4 weeks change from baseline
Experimental: as §3, §4
Triglycerides, [HDL] cholesterol, and plasma cholesterol were measured on the Selectra autoanalyzer (Sopachem BV, 44-RI Straat 33, 4051 AP Ochten, The Netherlands). All assays were commercially available from DiaSys Diagnostic Systems GmbH, Alte Strasse 9, 65558 Holzheim, Germany.

O=C(Nc1nc2cccc(-c3ccc(CN4CCS(=O)(=O)CC4)cc3)n2n1)C1CC1 [Compound 1, cyclopropanecarboxylic acid {5-[4-(1,1-dioxo-thiomorpholin-4-ylmethyl)-phenyl]-[1,2,4]triazolo[1,5-a]pyridin-2yl}-amide]
CRP mean CFB (LOCF) - 24 weeks results (RA patients [1]; 50 mg q.d., week 1): -7.95 mg/L
CRP mean CFB (LOCF) - 24 weeks results (RA patients [1]; 50 mg q.d., week 2): -8.23 mg/L
CRP mean CFB (LOCF) - 24 weeks results (RA patients [1]; 50 mg q.d., week 4): -10.18 mg/L
CRP mean CFB (LOCF) - CRP variation (RA patients [1]; 50 mg q.d., week 8): -12.02 mg/L
CRP mean CFB (LOCF) - 24 weeks results (RA patients [1]; 50 mg q.d., week 12): -13.15 mg/L
CRP mean CFB (LOCF) - 24 weeks results (RA patients [1]; 100 mg q.d., week 1): -11.02 mg/L
CRP mean CFB (LOCF) - 24 weeks results (RA patients [1]; 100 mg q.d., week 2): -12.94 mg/L
CRP mean CFB (LOCF) - 24 weeks results (RA patients [1]; 100 mg q.d., week 4): -13.18 mg/L
CRP mean CFB (LOCF) - 24 weeks results (RA patients [1]; 100 mg q.d., week 8): -12.48 mg/L
CRP mean CFB (LOCF) - 24 weeks results (RA patients [1]; 100 mg q.d., week 12): -13.57 mg/L
CRP mean CFB (LOCF) - 24 weeks results (RA patients [1]; 200 mg q.d., week 1): -17.06 mg/L
CRP mean CFB (LOCF) - 24 weeks results (RA patients [1]; 200 mg q.d., week 2): -17.51 mg/L
CRP mean CFB (LOCF) - 24 weeks results (RA patients [1]; 200 mg q.d., week 4): -17.94 mg/L
CRP mean CFB (LOCF) - 24 weeks results (RA patients [1]; 200 mg q.d., week 8): -17.22 mg/L
CRP mean CFB (LOCF) - 24 weeks results (RA patients [1]; 200 mg q.d., week 12): -17.24 mg/L
CRP mean CFB (LOCF) - 24 weeks results (RA patients [1]; 2 × 25 mg b.i.d., Week 1): -8.47 mg/L
CRP mean CFB (LOCF) - 24 weeks results (RA patients [1]; 2 × 25 mg b.i.d., Week 2): -10.06 mg/L
CRP mean CFB (LOCF) - 24 weeks results (RA patients [1]; 2 × 25 mg b.i.d., Week 4): -7.72 mg/L
CRP mean CFB (LOCF) - 24 weeks results (RA patients [1]; 2 × 25 mg b.i.d., Week 8): -10.94 mg/L
CRP mean CFB (LOCF) - 24 weeks results (RA patients [1]; 2 × 25 mg b.i.d., Week 12): -10.26 mg/L
CRP mean CFB (LOCF) - 24 weeks results (RA patients [1]; 2 × 25 mg b.i.d., Week 20): -12.20 mg/L
CRP mean CFB (LOCF) - 24 weeks results (RA patients [1]; 2 × 50 mg b.i.d., Week 1): -10.08 mg/L
CRP mean CFB (LOCF) - 24 weeks results (RA patients [1]; 2 × 50 mg b.i.d., Week 2): -11.03 mg/L
CRP mean CFB (LOCF) - 24 weeks results (RA patients [1]; 2 × 50 mg b.i.d., Week 4): -13.28 mg/L
CRP mean CFB (LOCF) - 24 weeks results (RA patients [1]; 2 × 50 mg b.i.d., Week 8): -13.25 mg/L
CRP mean CFB (LOCF) - 24 weeks results (RA patients [1]; 2 × 50 mg b.i.d., Week 12): -12.97 mg/L
CRP mean CFB (LOCF) - 24 weeks results (RA patients [1]; 2 × 100 mg b.i.d., Week 1): -17.39 mg/L
CRP mean CFB (LOCF) - 24 weeks results (RA patients [1]; 2 × 100 mg b.i.d., Week 2): -19.69 mg/L
CRP mean CFB (LOCF) - 24 weeks results (RA patients [1]; 2 × 100 mg b.i.d., Week 4): -20.64 mg/L
CRP mean CFB (LOCF) - 24 weeks results (RA patients [1]; 2 × 100 mg b.i.d., Week 8): -21.32 mg/L
CRP mean CFB (LOCF) - 24 weeks results (RA patients [1]; 2 × 100 mg b.i.d., Week 12): -20.54 mg/L
CRP mean CFB (LOCF) - 24 weeks results (RA patients [1]; 2 × 100 mg b.i.d., Week 20): -20.80 mg/L
CRP mean CFB (LOCF) (RA patients [2]; week 1): -3.70 mg/L
CRP mean CFB (LOCF) (RA patients [2]; week 12): -4.43 mg/L
ApoC-II level, 4 weeks CFB (RA patients [3]; 30 mg q.d.): 11.2%
ApoC-II level, 4 weeks CFB (RA patients [3]; 75 mg q.d.): 23.3%
ApoC-II level, 4 weeks CFB (RA patients [3]; 150 mg q.d.): 8.6%
ApoC-II level, 4 weeks CFB (RA patients [3]; 300 mg q.d.): 37.0%
HDL level, 4 weeks CFB (RA patients [4]; 30 mg q.d.): 6.7%
HDL level, Baseline (RA patients [4]; 30 mg q.d.): 0.9 mM
HDL level, week 4 (RA patients [4]; 30 mg q.d.): 1 mM
HDL level, 4 weeks CFB (RA patients [4]; 75 mg q.d.): 13.7%
HDL level, Baseline (RA patients [4]; 75 mg q.d.): 1 mM
HDL level, week 4 (RA patients [4]; 75 mg q.d.): 1.1 mM
HDL level, 4 weeks CFB (RA patients [4]; 150 mg q.d.): 10.7%
HDL level, Baseline (RA patients [4]; 150 mg q.d.): 1 mM
HDL level, week 4 (RA patients [4]; 150 mg q.d.): 1.1 mM
HDL level, 4 weeks CFB (RA patients [4]; 300 mg q.d.): 46.0%
HDL level, Baseline (RA patients [4]; 300 mg q.d.): 1 mM
HDL level, week 4 (RA patients [4]; 300 mg q.d.): 1.4 mM
